The values that follow come from PMC9234963, “Optimizing Shape Complementarity Enables the Discovery of Potent Tricyclic BCL6 Inhibitors” (Journal of Medicinal Chemistry, 2022).

The nature of series [1]: HPLC kinetic solubility assay. It is filed as physicochemical. The note with it: kinetic solubility by HPLC, 10 mM phosphate-buffered saline pH 7.4, 1% DMSO. The method, then:
3.2 HPLC solubility assay
DMSO. Following shaking of the suspension on a Bohdan Shaker at 500 rpm for 2 hours at room […]
200 µL of the supernatant was transferred to a 2 mL Agilent vial containing 50 µL of DMSO (Sigma […]
detection using an external standard which was prepared by pipetting 10 µL of the same batch of […]
The detail of the HPLC method is as following: chromatographic separation at 30°C is carried out over a 5 minute gradient elution method from 90:10 to 10:90 water:methanol (both modified with 0.1% formic acid) at a flow rate of 1.5 mL/min. Calibration curve is prepared by injecting 0.5, 2.5, and 5 µL of compound external standard.
62.5 µL of compound solubility sample. […]

A further series has as its target human BCL6 BTB domain (Homo sapiens, UniProt P41182). Description: biochemical. The note with it: for BCL6 TR-FRET mean pIC50: mean of replicates. The source says: 6. Supplementary tables … S-17
Table S1: summary statistics and individual replicate values … S-17 […]
1. Supplementary experimental: protein production, purification and crystallography 1.1 BCL6 constructs used for assays and crystallography
A first construct of BCL6 BTB domain, which we will refer to as Trx-6His-HRV3C-BCL6, was obtained […]
3C protease cleavage site. For the TR-FRET assay, the Trx-6His-HRV3C-BCL6 protein construct was […]
used without cleaving the tag, as a 6His was needed to bind to the anti-6His-Terbium antibody. […]
For both plasmid constructs described above, transformed BL21-AI E. coli cells were grown in LB […]
carried out at 18 °C for 18 hours. Cells were harvested by centrifugation (5500 g for 30 minutes at 4 […]
oC) and stored at -80 °C.
2. Supplementary experimental: biological assay conditions
IC50 values were determined using […]
a sigmoidal four-parameter logistic fit equation.
Individual replicates shown in supplementary
A general note: Time-resolved FRET reads energy transfer from a long-lived donor to a nearby acceptor.

Another series is described as follows: PAMPA permeability. The note with it: pH 7.4. A general note: PAMPA measures passive passage across an artificial lipid membrane.
The conditions of series [2]: cited from earlier work.
A further series concerns Karpas 422. The series is described as follows: Cell proliferation assay (14 days, CellTiter Glo), Karpas 422. It is filed as cell-based. The note with it: Homo sapiens, KARPAS-422, read-out: Karpas 422 GI50, BCL6-high line. The method, then:
(§1) After a short centrifugation the plates
(§2) The % inhibition at each test
(§3) 2.3 Cell proliferation assay
(§4) Compounds were initially dispensed into 96- […]
(§5) medium and transferred onto the cells.
(§6) The volume of medium containing 2500 cells in the control well was calculated and this volume of cells was transferred from every well of the assay plates to the corresponding well of the fresh plates containing compound. After 14 days, CellTiter Glo reagent (Promega) was added to the medium in each well of the assay plate at a ratio of 1:2, mixed on a plate shaker, then incubated at room temperature for 10 minutes. Luminescence was measured using an Envision plate reader (Perkin Elmer) and the relative luminescence at each compound concentration, compared to DMSO alone, was calculated. GI50 were determined using a 4-parameter curve fit in Dotmatics (Bishops Stortford, UK).

Series [3] in a line: NMR kinetic solubility assay. It counts as physicochemical. The note with it: kinetic solubility by NMR, HEPES buffer pH 8, 4% DMSO. The method, then:
3. Supplementary experimental: physicochemical assays
The plate was then sealed and incubated at room temperature for 20 hours, without shaking. The plate was centrifuged again for 1 minute at […]
spectrometer equipped with a 5 mm TCI-CryoProbe. […]
deuterated solvent. […] All NMR data were acquired at the […]
contained 16k time-domain data points. Relaxation delay was set to 20 sec. Water signal was […]
The quantification of the compound concentration was carried out using MestReNova

A further series relates to OCI-Ly1. The series is described as follows: Cell proliferation assay (14 days, CellTiter Glo), OCI-Ly1. It counts as cell-based. The note with it: Homo sapiens, BCL6-high line. On the procedure:
as §1, §2, §3, §4, §5, §6
(In ATP-based viability assays light output follows the ATP content of the culture.)

The next series has as its system OCI-Ly3. The series is described as follows: Cell proliferation assay (14 days, CellTiter Glo), OCI-Ly3. It is filed as cell-based. The note with it: Homo sapiens, BCL6-low line. The method, then: as §1, §2, §3, §4, §5, §6
Where [4] appears, read: BCL6 TR-FRET IC50 individual replicates, single replicates, 10 nM BCL6 for early examples, else 1 nM.
Setting [5] is: read-out: BCL6 TR-FRET IC50, geometric mean of replicates.
Setting [6] is: read-out: BCL6 TR-FRET IC50 individual replicates, single replicates, 10 nM BCL6 for early examples, else 1 nM.
Where [7] appears, read: BCL6 TR-FRET IC50, geometric mean of replicates.

Structures are written as SMILES. Values joined by “and” are separate entries in the source; they are usually repeats but may differ in a detail not shown here. Equal values may be shown once. Read-outs that look alike come from different tables or passages of the source.

For `CC1COc2c(c3cc(Nc4ccnc(Cl)c4C#N)ccc3n(C)c2=O)N1` (stereo not shown) [Compound 6, 2-Chloro-4-((2,6-dimethyl-5-oxo-2,3,5,6-tetrahydro-1H-[1,4]oxazino[2,3-c]quinolin-9-yl)amino)nicotinonitrile], in series [1], the “Aq. Sol” value was 11 µM. In addition, the IC50 at human BCL6 BTB domain (setting [4]) was 1110 nM and 1390 nM and 1530 nM; at human BCL6 BTB domain (setting [5]), 1330 nM and 1300 nM. In addition, the “BCL6 TR-FRET mean pIC50” value on human BCL6 BTB domain is on record as 5.88.
With `N#Cc1c(Nc2ccc3[nH]c(=O)c4c(c3c2)NCCC4)ccnc1Cl` [Compound 5a, 2-Chloro-4-((5-oxo-1,2,3,4,5,6-hexahydrobenzo[h][1,6]naphthyridin-9-yl)amino)nicotinonitrile], in series [1], the “Aq. Sol” value amounted to 12 µM. For the same compound, the IC50 against human BCL6 BTB domain (setting [4]) was 7060 nM and 6930 nM and 3890 nM and 7370 nM; at human BCL6 BTB domain (setting [5]), 6120 nM and 6100 nM. For the same compound, the “BCL6 TR-FRET mean pIC50” value on human BCL6 BTB domain was found to be 5.21.
Consider `Cn1c(=O)cc(NC(C)(C)c2ncc(C3CC3)cn2)c2cc(Nc3ccnc(Cl)c3C#N)ccc21` [Compound 3], for which the “PAMPA Pe (7.4)” value in the series “PAMPA permeability” is given as 35 × 10^–6 cm s^–1. Moreover, the “Aq. Sol” value in series [1] was 31 µM. The “BCL6 TR-FRET mean pIC50” value on human BCL6 BTB domain worked out at 7.58. The IC50 was 26 nM on human BCL6 BTB domain (setting [5]); 25.5 nM and 33.1 nM and 41 nM and 22.6 nM and 15.6 nM at human BCL6 BTB domain (setting [6]). In addition, the “passive permeability” value in series [2] was “high”. In addition, the GI50 in the series on Karpas 422 is 3320 nM.
As for `Cn1c(=O)c2c(c3cc(Nc4ccnc(Cl)c4C#N)ccc31)NCCCO2` [Compound 10, 2-Chloro-4-((7-methyl-6-oxo-1,2,3,4,6,7-hexahydro-[1,4]oxazepino[2,3-c]quinolin-10-yl)amino)nicotinonitrile], in series [1], the “Aq. Sol” value stood at 12 µM. Moreover, the concentration for half-maximal inhibition (IC50) is 15600 nM and 22400 nM against human BCL6 BTB domain (setting [4]); 18700 nM and 19000 nM at human BCL6 BTB domain (setting [5]). Also, the “BCL6 TR-FRET mean pIC50” value on human BCL6 BTB domain came out at 4.73.
Turning to `CC1CCc2c(c3cc(Nc4ccnc(Cl)c4C#N)ccc3n(C)c2=O)N1` (stereo not shown) [Compound 5b, 2-Chloro-4-((2,6-dimethyl-5-oxo-1,2,3,4,5,6-hexahydrobenzo[h][1,6]-naphthyridin-9-yl)amino)nicotinonitrile], in series [1], the “Aq. Sol” value was determined as 1.8 µM. The IC50 is 1030 nM and 960 nM and 1460 nM and 1670 nM and 6960 nM and 4820 nM on human BCL6 BTB domain (setting [4]); 2080 nM and 2100 nM on human BCL6 BTB domain (setting [5]). Besides, the “BCL6 TR-FRET mean pIC50” value on human BCL6 BTB domain came to 5.68.
As for `Cn1c(=O)c2c(c3cc(Nc4ccnc(Cl)c4C#N)ccc31)NC(C1CCC1)CCO2` (stereo not shown) [Compound 11c, 2-Chloro-4-((2-cyclobutyl-7-methyl-6-oxo-1,2,3,4,6,7-hexahydro-[1,4]oxazepino[2,3-c]quinolin-10-yl)amino)nicotinonitrile], the IC50 at human BCL6 BTB domain (setting [4]) was 3570 nM and 5260 nM; at human BCL6 BTB domain (setting [5]), 4310 nM and 4300 nM; on human BCL6 BTB domain (setting [6]), 4270 nM. Also, the “BCL6 TR-FRET mean pIC50” value on human BCL6 BTB domain is recorded as 5.37. Besides, the “Aq. Sol” value in series [3] was 26 µM.
`Cn1c(=O)c2c(c3cc(Nc4ccnc(Cl)c4C#N)ccc31)NC(C(F)F)CCO2` (stereo not shown) [Compound 11e, 2-Chloro-4-((2-(difluoromethyl)-7-methyl-6-oxo-1,2,3,4,6,7-hexahydro-[1,4]oxazepino[2,3-c]quinolin-10-yl)amino)nicotinonitrile]: the 50% inhibitory concentration (IC50) against human BCL6 BTB domain (setting [4]) was 2150 nM and 1540 nM and 2500 nM; on human BCL6 BTB domain (setting [5]) it was 2020 nM and 2000 nM. Moreover, on human BCL6 BTB domain, the “BCL6 TR-FRET mean pIC50” value was determined as 5.69. Besides, the “Aq. Sol” value in series [3] turned out to be 119 µM.
On to `CC1CC(C)(C)Oc2c(c3cc(Nc4ccnc(Cl)c4C#N)ccc3n(C)c2=O)N1` (stereo not shown) [Compound 13b, 2-Chloro-4-((2,4,4,7-tetramethyl-6-oxo-1,2,3,4,6,7-hexahydro-[1,4]oxazepino[2,3-c]quinolin-10-yl)amino)nicotinonitrile], for which the IC50 was over 9800 nM at human BCL6 BTB domain (setting [7]); 8700 nM and 16500 nM and > 6600 nM at human BCL6 BTB domain (setting [4]). Also, the “Aq. Sol” value in series [3] was 12 µM.
In the case of `C[C@H]1COC(=O)c2c(c3cc(Nc4ccnc(Cl)c4C#N)ccc3n(C)c2=O)N1` [Compound 7, (S)-2-Chloro-4-((2,7-dimethyl-5,6-dioxo-1,2,3,5,6,7-hexahydro-[1,4]oxazepino[6,5-c]quinolin-10-yl)amino)nicotinonitrile], the Papp in the series “PAMPA permeability” (PAMPA) is under 0.2 ×10⁻⁶ cm/s. The half-inhibitory concentration (IC50) on human BCL6 BTB domain (setting [4]) was 153 nM and 151 nM and 56 nM and 58 nM; on human BCL6 BTB domain (setting [5]), 94 nM; on human BCL6 BTB domain (setting [6]) it was 98 nM. Moreover, the “BCL6 TR-FRET mean pIC50” value on human BCL6 BTB domain worked out at 7.03.
Consider `CCNc1cc(=O)[nH]c2ccc(Nc3ccnc(Cl)c3C#N)cc12` [Compound 2], for which, in “PAMPA permeability”, the “PAMPA Pe (7.4)” value was <0.1 × 10^–6 cm s^–1. Besides, the “Aq. Sol” value in series [1] worked out at 9.7 µM. Moreover, the IC50 at human BCL6 BTB domain (setting [7]) is 1200 nM; on human BCL6 BTB domain (setting [5]), 1310 nM and 1300 nM. The “BCL6 TR-FRET mean pIC50” value on human BCL6 BTB domain amounted to 5.88.
In the case of `CC1Nc2c(c(=O)n(C)c3ccc(Nc4ccnc(Cl)c4C#N)cc23)OCC12CC2` (stereo not shown) [Compound 13d, 2-Chloro-4-((2′,7′-dimethyl-6′-oxo-1′,2′,6′,7′-tetrahydro-4′H-spiro[cyclopropane-1,3′-[1,4]oxazepino[2,3-c]quinolin]-10′-yl)amino)nicotinonitrile], the IC50 against human BCL6 BTB domain (setting [4]) is 1070 nM and 2070 nM and 1870 nM; at human BCL6 BTB domain (setting [5]) it was 1590 nM and 1600 nM. The “BCL6 TR-FRET mean pIC50” value on human BCL6 BTB domain is 5.8. Moreover, in series [3], the “Aq. Sol” value was determined as 126 µM.
In the case of `CC(C)C1CCOc2c(c3cc(Nc4ccnc(Cl)c4C#N)ccc3n(C)c2=O)N1` (stereo not shown) [Compound 11d, 2-Chloro-4-((2-isopropyl-7-methyl-6-oxo-1,2,3,4,6,7-hexahydro-[1,4]oxazepino[2,3-c]quinolin-10-yl)amino)nicotinonitrile], the IC50 was 2410 nM and 3460 nM and 3640 nM against human BCL6 BTB domain (setting [4]); 3120 nM and 3100 nM at human BCL6 BTB domain (setting [5]). For the same compound, on human BCL6 BTB domain, the “BCL6 TR-FRET mean pIC50” value is listed as 5.51. In series [3], the “Aq. Sol” value was determined as 40 µM.
On to `Cn1c(=O)c2c(c3cc(Nc4ccnc(Cl)c4C#N)ccc31)N[C@@H](C1CC1)C(F)(F)CO2` [Compound 1, (S)-2-Chloro-4-((2-cyclopropyl-3,3-difluoro-7-methyl-6-oxo-1,2,3,4,6,7-hexahydro-[1,4]oxazepino[2,3-c]quinolin-10-yl)amino)nicotinonitrile], for which the figures for the 50% growth inhibitory concentration (GI50) with OCI-Ly1, with OCI-Ly3 and in the series on Karpas 422 were 170 nM, 3400 nM and 190 nM, respectively. Besides, the half-maximal inhibitory concentration (IC50) at human BCL6 BTB domain (setting [4]) was 2.9 nM (3×) and 2.4 nM and 16.2 nM; at human BCL6 BTB domain (read-out: BCL6 TR-FRET IC50, Figure 1), 4 nM and 3.9 nM; at human BCL6 BTB domain (setting [5]) it was 3.9 nM; at human BCL6 BTB domain (setting [6]), 3.9 nM. Besides, the “BCL6 TR-FRET mean pIC50” value on human BCL6 BTB domain was 8.40 and 8.41.

The term IC50 denotes the concentration at which inhibition is half-maximal. One may read the GI50 as the concentration giving 50% growth inhibition. The term Papp denotes the rate of passage across a membrane or cell layer, normalised by area and donor concentration. A low value points to poor permeation.
